A short description of series [1]: Hydrolysis of dipeptides in human plasma. The format is in vitro ADME. The settings on record: 37° C., 30 minutes; for Residual Rate: 10 mM dipeptide. As to the method:
Each of the dipeptides shown in Table 1 below was added to 0.75 ml of plasma collected and prepared from human to give a concentration of 10 mM, followed by reaction at 37° C. for 30 minutes.

The nature of series [2]: Change in concentration in blood of dipeptides administered to mice. The settings on record: tail vein, 250 μmoles/kg body weight, FIG. 1. The format is in vivo, C3H/He mice. The text has this: γ-L-Glutamyl-L-glutamine and L-alanyl-L-glutamine were respectively administered to C3H/He mice (6 weeks of age, male, weighing 20 g) through the tail vein at a dose of 250 μmoles/kg body weight, and blood was collected intermittently. Five mice were used for each test group, and the results are shown by the mean ±SEM.

Series [3] is described as follows: Hydrolysis of dipeptides in mouse plasma. The format is in vitro ADME, C3H/He mice. The settings on record: 3.13 mM, 37° C.; for Residual Rate: mean of five mice. As for the experimental part:
Each of the dipeptides shown in Table 2 below was added to 0.05 ml of plasma collected and prepared from C3H/He mice (6 weeks of age, male, weighing 20 g) to give a concentration of 3.13 mM, followed by reaction at 37° C. for 2, 5, 10 and 20 minutes. Five mice were used for each test group, and the results are shown by the mean value.

Series [4] in a line: Influence of administered dipeptides on renal glutamine level. The format is in vivo, C3H/He mice. The settings on record: mice, tail vein; for Concentration of Glutamine in kidney: 250 γmoles/kg body weight, kidneys excised after 20 minutes, mean ±SEM, five mice. As for the experimental part: γ-L-Glutamine-L-glutamine and L-alany-L-glutamine were respectively administered to C3H/He mice (6 weeks of age, male, weighing 20 g) through the tail vein at a dose of 250 γmoles/kg body weight, and after 20 minutes, the kidneys were excised. The glutamine level in the organ was compared to that prior to the administration of the dipeptides. Five mice were used for each test group, and the results are shown by the mean ±SEM.

Series [5] is described as follows: Storage stability test at 40° C. for 30 days. Format: physicochemical. The settings on record: in solution.
The nature of series [6]: Stability in solution under sterilizing conditions. Format: physicochemical. The settings on record: solution 10 mM, pH 6.5, 110° C. for 60 minutes.
Series [7] can be described thus: Stability in nutrient preparations under heat sterilization. Format: physicochemical.
Series [8] deals with γ-glutamyl transferase. The settings on record: J. Biol. Chem., vol. 253, No. 6, p. 1799-1806 (1978); cited from earlier work.
Series [9] concerns γ-glutamyl cyclotransferase. The settings on record: J. Biol. Chem., vol. 253, No. 6, p. 1799-1806 (1978); cited from earlier work.
Series [10] addresses T1, γ-GTP (γ-glutamyl transferase) (Sus scrofa, UniProt P20735).
T1 construct: γ-GTP prepared from swine kidney was added to the solution; from tissue; host or cells: swine kidney
Kind of series: Hydrolysis of dipeptides by γ-GTP. The format is biochemical. The settings on record: 5 mM dipeptide, Tris-HCl buffer 50 mM pH 7.0, γ-GTP from swine kidney, 37° C., 120 minutes.

Structures are written as SMILES. Where a SMILES comes first, the peptide text is derived from it.

T1 sequence (P20735 380-568 limits assumed): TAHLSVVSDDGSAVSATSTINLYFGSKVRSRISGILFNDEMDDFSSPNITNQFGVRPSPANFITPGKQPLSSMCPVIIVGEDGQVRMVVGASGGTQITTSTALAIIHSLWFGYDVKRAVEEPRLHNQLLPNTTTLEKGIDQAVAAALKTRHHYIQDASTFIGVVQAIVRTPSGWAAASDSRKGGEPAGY
T1 sequence (P20735 1-379 limits assumed): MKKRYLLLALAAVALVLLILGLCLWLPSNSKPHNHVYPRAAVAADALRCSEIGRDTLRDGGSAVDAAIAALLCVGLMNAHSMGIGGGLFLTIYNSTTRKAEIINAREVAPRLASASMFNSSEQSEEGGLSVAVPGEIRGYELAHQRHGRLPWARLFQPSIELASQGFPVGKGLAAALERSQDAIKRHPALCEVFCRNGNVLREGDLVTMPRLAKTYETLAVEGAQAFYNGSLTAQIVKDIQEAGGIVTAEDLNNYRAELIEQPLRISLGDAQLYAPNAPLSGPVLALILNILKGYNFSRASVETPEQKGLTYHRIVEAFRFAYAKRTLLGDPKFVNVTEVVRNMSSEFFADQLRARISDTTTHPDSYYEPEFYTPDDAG

As to `NCC(=O)N[C@@H](CCC(N)=O)C(=O)O` [Glycyl-L-glutamine] (H-Gly-Gln-OH), in series [1], the “Residual Rate” value worked out at 84%.
Take `C[C@H](N)C(=O)N[C@@H](CCC(N)=O)C(=O)O` [L-Alanyl-L-glutamine, reference compound] (H-Ala-Gln-OH): the “Appearance (release) of glutamine in blood” value in series [2] was “rapid release of glutamine into the blood”. Further, the “Disappearance of the dipeptide from blood” value in series [2] is on record as “disappeared extremely rapidly”. The “Residual Rate” value is given as 74% in series [1]; 87% in series [3] (2 minutes); 62% in series [3] (5 minutes); 24% in [3] (10 minutes); 11% in series [3] (20 minutes). For the same compound, the “Concentration of Glutamine in kidney” value in [4] worked out at 1.14 ± 0.09 μmole/g wet weight.
In the case of `NC(=O)CC[C@H](N)C(=O)O` [L-Glutamine, reference compound], in series [5], the “Decomposition in storage stability test” value is reported as 29% and the “Residual Rate after Storage at 40° C. for 30 days” value is recorded as 71%. In series [6], the “Decomposition under sterilizing conditions” value is 60% and the “Residual Rate after Sterilization” value is reported as 40%.
As to `NC(=O)CC[C@H](NC(=O)[C@@H](N)CC(=O)O)C(=O)O` [L-Aspartyl-L-glutamine] (H-Asp-Gln-OH), the “Residual Rate” value in series [1] amounted to 58%.
Consider `NC(=O)CC[C@H](NC(=O)CC[C@H](N)C(=O)O)C(=O)O` [γ-L-Glutamyl-L-glutamine], for which, in series [2], the “Appearance (release) of glutamine in blood” value was “slow”. Besides, the “Disappearance of the dipeptide from blood” value in series [2] is given as “slow”. The “Decomposition in storage stability test” value in [5] was “not decomposed at all”. Also, the “Residual Rate after Storage at 40° C. for 30 days” value in series [5] amounted to 100%. The “Decomposition under sterilizing conditions” value in [6] is “not decomposed at all”. In addition, in series [6], the “Residual Rate after Sterilization” value was 100%. The “Residual Rate” value turned out to be 99% in series [1]; 100% in [3] (2 minutes); 100% in series [3] (5 minutes); 100% in series [3] (10 minutes); 100% in series [3] (20 minutes). In series [1] (10 mM), the “Hydrolysis in human plasma” value is recorded as “substantially free of hydrolysis”. Moreover, the “Hydrolysis in mouse plasma” value in [3] (up to 20 minutes) is reported as “not hydrolyzed at all”. Moreover, the “Stability under the sterilizing conditions” value is given as “remained stable” in [7] (Example 2 jelly-like nutrient preparation, heated at 100° C. for 30 minutes) and “remained stable” in series [7] (Example 3 composition for oral nutrient supplementation, 110° C. for 60 minutes). In addition, in [8], the “Substrate for γ-glutamyl transferase” value is on record as “effective substrate”. For the same compound, in series [9], the “Substrate for γ-glutamyl cyclotransferase” value is reported as “effective substrate”. Also, in [4], the “Concentration of Glutamine in kidney” value is recorded as 1.57 ± 0.12 μmole/g wet weight. Besides, the “Renal glutamine level” value in series [4] (20 minutes after administration, compared to prior to administration) is recorded as “significantly high renal glutamine level”. Besides, in series [10], the “Hydrolysis by γ-GTP” value was “almost completely hydrolyzed”.

(Values after patent US5134125A, “Nutrient composition” (Kyowa Hakko Kogyo Co., Ltd., priority 1989, dated 1992).)
